Like-named read-outs stand apart in the source and are kept apart here.
Legend:
CCRF-CEM cell line = assay: dCK cellular assay: CCRF-CEM proliferation in the presence of dT and dC; assay type: cell-based, human; conditions: for activity at 0.078 µM: 78 nM; for activity at 0.156 µM: 156 nM; for activity at 0.312 µM: 312 nM; for activity at 0.625 µM: 625 nM; for activity at 1.25 µM: 1250 nM; for activity at 2.5 µM: 2500 nM; for activity at 5 µM: 5000 nM; for activity at 20 µM: 20000 nM
How it was run: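 Two conditions in T-ALL CCRF-CEM cells: compound only, and compound with thymidine blocking de novo synthesis and deoxycytidine rescuing via dCK. Metabolic dye fluorescence (560/590 nm) gives % proliferation vs DMSO; IC50s, mean ± SD of at least three triplicate runs.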

dCK-C3S-S74E [1] = assay: Thermal shift assay (TSA); conditions: for ΔTm, dCK thermal stabilization (TSA): 5 μM protein, 50 μM compound; for THERMAL SHIFT ASSAY +Tm (°): mean ± SD
dCK-C3S-S74E [2] = assay: Enzymatic assay (PK/LDH coupled), dC phosphorylation by dCK in the presence of UTP; assay type: biochemical, human; conditions: for effect on dCK enzymatic activity, activation versus inhibition: UTP 1 mM, dC 200 µM; for ENZYMATIC ASSAY (Activation/Inhibition): presence of UTP
How it was run: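 Activation versus inhibition was judged with 1 mM UTP, 200 µM dC and 2 μM dCK-C3S-S74E, using pyruvate kinase/lactate dehydrogenase coupling that tracks NADH fluorescence decrease at 460 nm. Buffer was HEPES pH 7.5 with MgCl2, KCl and DTT. Rates came from linear slopes, expressed relative to compound-free control.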

[3] = Homo sapiens, CCRF-CEM, dT 200 µM + dC 1 µM, read-out: Cell proliferation of the CCRF-CEM cell line Mean (% prolif)
[4] = Homo sapiens, CCRF-CEM, 10000 nM, dT 200 µM + dC 1 µM, read-out: Cell proliferation of the CCRF-CEM cell line Mean (% prolif)
[5] = Homo sapiens, CCRF-CEM, compound 10 µM + dT 111 µM + dC 1 µM, 72 h, read-out: Cell proliferation of the CCRF-CEM cell line Mean (% prolif)
[6] = Homo sapiens, read-out: dCK CELLULAR ASSAY IC50 (nM), CCRF-CEM, 200 µM dT and 1 µM dC, read-out: dCK […] ASSAY IC50
[7] = Homo sapiens, CCRF-CEM, dT 200 µM + dC 1 µM, 72 h, read-out: IC50 cell proliferation

Sequence of dCK-C3S-S74E (P27707 whole entry S74E, form open): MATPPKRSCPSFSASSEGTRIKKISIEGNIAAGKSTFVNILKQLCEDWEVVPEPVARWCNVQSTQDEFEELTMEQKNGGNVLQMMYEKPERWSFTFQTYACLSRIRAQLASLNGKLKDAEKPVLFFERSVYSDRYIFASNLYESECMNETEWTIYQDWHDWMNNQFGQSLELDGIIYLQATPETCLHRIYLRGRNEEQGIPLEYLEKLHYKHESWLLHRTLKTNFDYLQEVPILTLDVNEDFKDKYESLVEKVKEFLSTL

Compound | ΔTm, dCK thermal stabilization (TSA) (dCK-C3S-S74E [1]) | THERMAL SHIFT ASSAY +Tm (°) (dCK-C3S-S74E [1]) | effect on dCK enzymatic activity, activation versus inhibition (dCK-C3S-S74E [2]) | ENZYMATIC ASSAY (Activation/Inhibition) (dCK-C3S-S74E [2]) | activity at 0.078 µM (CCRF-CEM cell line; [3]) | activity at 0.156 µM (CCRF-CEM cell line; [3]) | activity at 0.312 µM (CCRF-CEM cell line; [3]) | activity at 0.625 µM (CCRF-CEM cell line; [3]) | activity at 1.25 µM (CCRF-CEM cell line; [3]) | activity at 2.5 µM (CCRF-CEM cell line; [3]) | activity at 5 µM (CCRF-CEM cell line; [3]) | activity at 10 µM (CCRF-CEM cell line; [4]) | activity at 20 µM (CCRF-CEM cell line; [3]) | activity at 10 µM (CCRF-CEM cell line; [5]) | IC50 (CCRF-CEM cell line; [6]) | IC50 (CCRF-CEM cell line; [7]) | Thermal Shift Assay Mean (ΔTm (º)) (dCK-C3S-S74E [1]; Figure 1b) | Enzymatic activity (UTP) Mean (% activity) (dCK-C3S-S74E [2]; 0.156 µM) | Enzymatic activity (UTP) Mean (% activity) (dCK-C3S-S74E [2]; 0.31 µM) | Enzymatic activity (UTP) Mean (% activity) (dCK-C3S-S74E [2]; 0.625 µM) | further results
CCCN(c1nc(-c2nc(N)cc(N)n2)cs1)c1cc(-c2ccc(S(=O)(=O)N3CCN(C)CC3)cc2C(F)(F)F)ccc1C [OR0642] | 22.2 °C | 22.2 ± 0.9 ° | inhibitor even at concentrations in the nanomolar range | I |  |  |  |  |  |  |  |  |  |  |  |  |  |  |  |  | activity at 10 pM (CCRF-CEM cell line; Homo sapiens, CCRF-CEM, 0.01 nM, dT 200 µM + dC 1 µM, read-out: Cell proliferation of the CCRF-CEM cell line Mean (% prolif)): 90.6%; activity at 30 pM (CCRF-CEM cell line; Homo sapiens, CCRF-CEM, 0.03 nM, dT 200 µM + dC 1 µM, read-out: Cell proliferation of the CCRF-CEM cell line Mean (% prolif)): 93.3%; activity at 91 pM (CCRF-CEM cell line; Homo sapiens, CCRF-CEM, 0.091 nM, dT 200 µM + dC 1 µM, read-out: Cell proliferation of the CCRF-CEM cell line Mean (% prolif)): 88.7%; activity at 0.00027 µM (CCRF-CEM cell line; Homo sapiens, CCRF-CEM, 0.27 nM, dT 200 µM + dC 1 µM, read-out: Cell proliferation of the CCRF-CEM cell line Mean (% prolif)): 87.2%; activity at 0.00082 µM (CCRF-CEM cell line; Homo sapiens, CCRF-CEM, 0.82 nM, dT 200 µM + dC 1 µM, read-out: Cell proliferation of the CCRF-CEM cell line Mean (% prolif)): 79.7%; activity at 0.0025 µM (CCRF-CEM cell line; Homo sapiens, CCRF-CEM, 2.5 nM, dT 200 µM + dC 1 µM, read-out: Cell proliferation of the CCRF-CEM cell line Mean (% prolif)): 68.2%; activity at 0.0074 µM (CCRF-CEM cell line; Homo sapiens, CCRF-CEM, 7.4 nM, dT 200 µM + dC 1 µM, read-out: Cell proliferation of the CCRF-CEM cell line Mean (% prolif)): 43.1%; activity at 0.022 µM (CCRF-CEM cell line; Homo sapiens, CCRF-CEM, 22 nM, dT 200 µM + dC 1 µM, read-out: Cell proliferation of the CCRF-CEM cell line Mean (% prolif)): 24.9%; activity at 0.067 µM (CCRF-CEM cell line; Homo sapiens, CCRF-CEM, 67 nM, dT 200 µM + dC 1 µM, read-out: Cell proliferation of the CCRF-CEM cell line Mean (% prolif)): 18%; activity at 0.2 µM (CCRF-CEM cell line; Homo sapiens, CCRF-CEM, 200 nM, dT 200 µM + dC 1 µM, read-out: Cell proliferation of the CCRF-CEM cell line Mean (% prolif)): 14.6%; IC50 (CCRF-CEM cell line; Homo sapiens, CCRF-CEM, dT 200 µM + dC 1 µM, 72 h, read-out: IC50 cell proliferation (dCK cellular assay)): 2.2 nM; increased potency in the cell proliferation assay (CCRF-CEM cell line; compared with dCKi1): more than 1000 times; potency increase (CCRF-CEM cell line; compared with masitinib): more than 1000 times; ΔTm (º) (TSA) (dCK-C3S-S74E [1]; Figure 2a, mean): 22.23 º; Thermal Shift Assay Mean (ΔTm (º)) (dCK-C3S-S74E [1]; Figure 2b): 22.2 º; improved dCK thermal stability (dCK-C3S-S74E [1]; compared to dCKi1): 7.9 °C; improved dCK thermal stability (dCK-C3S-S74E [1]; compared to masitinib): 15 °C
Cc1ccc(NC(=O)c2ccc(CN3CCN(C)CC3)cc2)cc1Nc1nc(-c2nccc(N)n2)cs1 [dCKi1] | 14.3 °C | 14.3 ± 0.4 ° | shifted from activators to inhibitors | A/I | 88.7% | 91% | 94.4% | 93.2% | 98.2% | 91.8% | 67.7% | 31% | 8.1% | 47% | 6950 ± 2530 nM | 6900 nM | 14.3 º | 119.43% | 140.85% | 200.29% | activity at 0.039 µM (CCRF-CEM cell line; Homo sapiens, CCRF-CEM, 39 nM, dT 200 µM + dC 1 µM, read-out: Cell proliferation of the CCRF-CEM cell line Mean (% prolif)): 94.3%; Enzymatic activity (UTP) Mean (% activity) (dCK-C3S-S74E [2]; 0.078 µM): 104.73%; Enzymatic activity (UTP) Mean (% activity) (dCK-C3S-S74E [2]; 1.25 µM): 208.47%; Enzymatic activity (UTP) Mean (% activity) (dCK-C3S-S74E [2]; 2.5 µM): 211.72%; Enzymatic activity (UTP) Mean (% activity) (dCK-C3S-S74E [2]; 5 µM): 205.54%; Enzymatic activity (UTP) Mean (% activity) (dCK-C3S-S74E [2]; 10 µM): 84.19%; Enzymatic activity (UTP) Mean (% activity) (dCK-C3S-S74E [2]; 20 µM): 45.49%; Enzymatic activity (UTP) Mean (% activity) (dCK-C3S-S74E [2]; 40 µM): 12.08%; Enzymatic activity (UTP) Mean (% activity) (dCK-C3S-S74E [2]; 80 µM): 5.40%; Enzymatic activity (UTP) Mean (% activity) (dCK-C3S-S74E [2]; 160 µM): 0.67%
Cc1ccc(NC(=O)c2ccc(CN3CCN(C)CC3)cc2)cc1Nc1nc(-c2nc(N)cc(N)n2)cs1 [dCKi2, N-(3-((4-(4,6-diaminopyrimidin-2-yl)thiazol-2-yl)amino)-4-methylphenyl)-4-((4-methylpiperazin-1-yl)methyl)benzamide] | 17.3 °C | 17.3 ± 0.2 ° | shifted from activators to inhibitors | A/I | 95.9% | 91.9% | 100% | 95.6% | 94.5% | 86% | 58.8% | 29.6% | 14% | 42.3% | 8910 ± 3340 nM | 8900 nM | 17.3 º | 93.59% | 84.70% | 90.40% | activity at 40 µM (CCRF-CEM cell line; Homo sapiens, CCRF-CEM, 40000 nM, dT 200 µM + dC 1 µM, read-out: Cell proliferation of the CCRF-CEM cell line Mean (% prolif)): 6.8%; Enzymatic activity (UTP) Mean (% activity) (dCK-C3S-S74E [2]; 1.25 µM): 99.44%; Enzymatic activity (UTP) Mean (% activity) (dCK-C3S-S74E [2]; 2.5 µM): 135.24%; Enzymatic activity (UTP) Mean (% activity) (dCK-C3S-S74E [2]; 5 µM): 164.65%; Enzymatic activity (UTP) Mean (% activity) (dCK-C3S-S74E [2]; 10 µM): 178.80%; Enzymatic activity (UTP) Mean (% activity) (dCK-C3S-S74E [2]; 20 µM): 174.40%; Enzymatic activity (UTP) Mean (% activity) (dCK-C3S-S74E [2]; 40 µM): 165.28%; Enzymatic activity (UTP) Mean (% activity) (dCK-C3S-S74E [2]; 80 µM): 150.42%; Enzymatic activity (UTP) Mean (% activity) (dCK-C3S-S74E [2]; 160 µM): 147.75%

From paper PMC10227015, “From a drug repositioning to a structure-based drug design approach to tackle acute lymphoblastic leukemia” (Nature Communications, 2023)
